{"source": "ChEMBL document CHEMBL2086272", "about": "“Anticlastogenic effect in human lymphocytes by the sodium salt of 3,4-secoisopimar-4(18),7,15-trien-3-oic acid” (J Nat Prod, 2012)", "key": {"[1]": {"system": "PBL", "assay": "Cytotoxicity in human PBL assessed as nuclear division index at 3.3 uM pretreated before ethyl methanesulfonate (reference value: 1.63 +/- 0.11 nuclear division index)", "type": "cell-based"}, "[2]": {"system": "PBL", "assay": "Cytotoxicity in human PBL assessed as nuclear division index at 33 uM pretreated before colcemid (reference value: 1.63 +/- 0.11 nuclear division index)", "type": "cell-based"}, "[3]": {"system": "PBL", "assay": "Antimutagenic activity in human PBL assessed as inhibition of ethyl methanesulfonate-induced frequency of micronucleus per 1000 binucleated lymphocyte cells at 33 uM treated after treatment with ethyl methanesulfonate by cytokinesis blocking technique (reference value: 3.33 +/- 0.33 micronucleus frequency/1000 binucleated lymphocyte cells)", "type": "functional"}, "[4]": {"system": "PBL", "assay": "Cytotoxicity in human PBL assessed as nuclear division index at 330 uM treated after treatment with colcemid (reference value: 1.59 +/- 0.08 nuclear division index)", "type": "cell-based"}, "[5]": {"system": "PBL", "assay": "Antimutagenic activity in human PBL assessed as inhibition of colcemid-induced frequency of micronucleus per 1000 binucleated lymphocyte cells at 33 uM treated after treatment with colcemid by cytokinesis blocking technique (reference value: 3.33 +/- 0.33 micronucleus frequency/1000 binucleated lymphocyte cells)", "type": "functional"}, "[6]": {"system": "PBL", "assay": "Cytotoxicity in human PBL assessed as nuclear division index at 33 uM pretreated before ethyl methanesulfonate (reference value: 1.63 +/- 0.11 nuclear division index)", "type": "cell-based"}, "[7]": {"system": "PBL", "assay": "Antimutagenic activity in human PBL assessed as inhibition of ethyl methanesulfonate-induced frequency of micronucleus per 1000 binucleated lymphocyte cells at 1930 uM treated after treatment with ethyl methanesulfonate by cytokinesis blocking technique (reference value: 3.33 +/- 0.33 micronucleus frequency/1000 binucleated lymphocyte cells)", "type": "functional"}, "[8]": {"system": "PBL", "assay": "Antimutagenic activity in human PBL assessed as inhibition of ethyl methanesulfonate-induced frequency of micronucleus per 1000 binucleated lymphocyte cells at 33 uM co-treated with ethyl methanesulfonate by cytokinesis blocking technique (reference value: 4.00 +/- 0.41 micronucleus frequency/1000 binucleated lymphocyte cells)", "type": "functional"}, "[9]": {"system": "PBL", "assay": "Cytotoxicity in human PBL assessed as nuclear division index at 3.3 uM treated after treatment with colcemid (reference value: 1.59 +/- 0.08 nuclear division index)", "type": "cell-based"}, "[10]": {"system": "PBL", "assay": "Antimutagenic activity in human PBL assessed as inhibition of colcemid-induced frequency of micronucleus per 1000 binucleated lymphocyte cells at 0.054 uM pretreated before colcemid by cytokinesis blocking technique (reference value: 3.33 +/- 0.88 micronucleus frequency/1000 binucleated lymphocyte cells)", "type": "functional"}, "[11]": {"system": "PBL", "assay": "Antimutagenic activity in human PBL assessed as inhibition of ethyl methanesulfonate-induced frequency of micronucleus per 1000 binucleated lymphocyte cells at 1930 uM pretreated before ethyl methanesulfonate by cytokinesis blocking technique (reference value: 3.33 +/- 0.88 micronucleus frequency/1000 binucleated lymphocyte cells)", "type": "functional"}, "[12]": {"system": "PBL", "assay": "Antimutagenic activity in human PBL assessed as inhibition of colcemid-induced frequency of micronucleus per 1000 binucleated lymphocyte cells at 33 uM pretreated before colcemid by cytokinesis blocking technique (reference value: 3.33 +/- 0.88 micronucleus frequency/1000 binucleated lymphocyte cells)", "type": "functional"}, "[13]": {"system": "PBL", "assay": "Cytotoxicity in human PBL assessed as nuclear division index at 1930 uM co-treated with ethyl methanesulfonate (reference value: 1.65 +/- 0.06 nuclear division index)", "type": "cell-based"}, "[14]": {"system": "PBL", "assay": "Antimutagenic activity in human PBL assessed as inhibition of ethyl methanesulfonate-induced frequency of micronucleus per 1000 binucleated lymphocyte cells at 33 uM pretreated before ethyl methanesulfonate by cytokinesis blocking technique (reference value: 3.33 +/- 0.88 micronucleus frequency/1000 binucleated lymphocyte cells)", "type": "functional"}, "[15]": {"system": "PBL", "assay": "Cytotoxicity in human PBL assessed as nuclear division index at 0.3 uM pretreated before ethyl methanesulfonate (reference value: 1.63 +/- 0.11 nuclear division index)", "type": "cell-based"}, "[16]": {"system": "PBL", "assay": "Antimutagenic activity in human PBL assessed as inhibition of colcemid-induced frequency of micronucleus per 1000 binucleated lymphocyte cells at 330 uM co-treated with colcemid by cytokinesis blocking technique (reference value: 4.00 +/- 0.41 micronucleus frequency/1000 binucleated lymphocyte cells)", "type": "functional"}, "[17]": {"system": "PBL", "assay": "Antimutagenic activity in human PBL assessed as inhibition of ethyl methanesulfonate-induced frequency of micronucleus per 1000 binucleated lymphocyte cells at 330 uM treated after treatment with ethyl methanesulfonate by cytokinesis blocking technique (reference value: 3.33 +/- 0.33 micronucleus frequency/1000 binucleated lymphocyte cells)", "type": "functional"}, "[18]": {"system": "PBL", "assay": "Cytotoxicity in human PBL assessed as nuclear division index at 0.3 uM treated after treatment with ethyl methanesulfonate (reference value: 1.59 +/- 0.08 nuclear division index)", "type": "cell-based"}, "[19]": {"system": "PBL", "assay": "Cytotoxicity in human PBL assessed as nuclear division index at 33 uM treated after treatment with colcemid (reference value: 1.59 +/- 0.08 nuclear division index)", "type": "cell-based"}, "[20]": {"system": "PBL", "assay": "Cytotoxicity in human PBL assessed as nuclear division index at 33 uM co-treated with ethyl methanesulfonate (reference value: 1.65 +/- 0.06 nuclear division index)", "type": "cell-based"}, "[21]": {"system": "PBL", "assay": "Cytotoxicity in human PBL assessed as nuclear division index at 0.3 uM co-treated with colcemid (reference value: 1.65 +/- 0.06 nuclear division index)", "type": "cell-based"}, "[22]": {"system": "PBL", "assay": "Antimutagenic activity in human PBL assessed as inhibition of ethyl methanesulfonate-induced frequency of micronucleus per 1000 binucleated lymphocyte cells at 3.3 uM treated after treatment with ethyl methanesulfonate by cytokinesis blocking technique (reference value: 3.33 +/- 0.33 micronucleus frequency/1000 binucleated lymphocyte cells)", "type": "functional"}, "[23]": {"system": "PBL", "assay": "Cytotoxicity in human PBL assessed as nuclear division index at 330 uM pretreated before colcemid (reference value: 1.63 +/- 0.11 nuclear division index)", "type": "cell-based"}, "[24]": {"system": "PBL", "assay": "Cytotoxicity in human PBL assessed as nuclear division index at 0.054 uM treated after treatment with colcemid (reference value: 1.59 +/- 0.08 nuclear division index)", "type": "cell-based"}, "[25]": {"system": "PBL", "assay": "Genotoxicity in human PBL assessed as micronucleus frequency at 0.3 to 330 uM", "type": "toxicity, cell-based"}, "[26]": {"system": "PBL", "assay": "Antimutagenic activity in human PBL assessed as inhibition of colcemid-induced frequency of micronucleus per 1000 binucleated lymphocyte cells at 33 uM co-treated with colcemid by cytokinesis blocking technique (reference value: 4.00 +/- 0.41 micronucleus frequency/1000 binucleated lymphocyte cells)", "type": "functional"}, "[27]": {"system": "PBL", "assay": "Cytotoxicity in human PBL assessed as nuclear division index at 1930 uM treated after treatment with ethyl methanesulfonate (reference value: 1.59 +/- 0.08 nuclear division index)", "type": "cell-based"}, "[28]": {"system": "PBL", "assay": "Antimutagenic activity in human PBL assessed as inhibition of colcemid-induced frequency of micronucleus per 1000 binucleated lymphocyte cells at 0.054 uM co-treated with colcemid by cytokinesis blocking technique (reference value: 4.00 +/- 0.41 micronucleus frequency/1000 binucleated lymphocyte cells)", "type": "functional"}, "[29]": {"system": "PBL", "assay": "Cytotoxicity in human PBL assessed as nuclear division index at 330 uM co-treated with ethyl methanesulfonate (reference value: 1.65 +/- 0.06 nuclear division index)", "type": "cell-based"}, "[30]": {"system": "PBL", "assay": "Antimutagenic activity in human PBL assessed as inhibition of ethyl methanesulfonate-induced frequency of micronucleus per 1000 binucleated lymphocyte cells at 0.3 uM treated after treatment with ethyl methanesulfonate by cytokinesis blocking technique (reference value: 3.33 +/- 0.33 micronucleus frequency/1000 binucleated lymphocyte cells)", "type": "functional"}}}
{"smiles": "C=C[C@@]1(C)CC[C@H]2C(=CC[C@@H](C(=C)C)[C@]2(C)CCC(=O)[O-])C1.[Na+]", "values": [{"measurement": "Activity", "setting": "[1]", "value": 1.49}, {"measurement": "Activity", "setting": "[2]", "value": 1.31}, {"measurement": "Activity", "setting": "[3]", "value": 19.5}, {"measurement": "Activity", "setting": "[4]", "value": 1.56}, {"measurement": "Activity", "setting": "[5]", "value": 11.75}, {"measurement": "Activity", "setting": "[6]", "value": 1.42}, {"measurement": "Activity", "setting": "[7]", "value": 20.14}, {"measurement": "Activity", "setting": "[8]", "value": 5.5}, {"measurement": "Activity", "setting": "[9]", "value": 1.58}, {"measurement": "Activity", "setting": "[10]", "value": 22.75}, {"measurement": "Activity", "setting": "[11]", "value": 14}, {"measurement": "Activity", "setting": "[12]", "value": 18}, {"measurement": "Activity", "setting": "[13]", "value": 1.55}, {"measurement": "Activity", "setting": "[14]", "value": 3.75}, {"measurement": "Activity", "setting": "[15]", "value": 1.46}, {"measurement": "Activity", "setting": "[16]", "value": 20.25}, {"measurement": "Activity", "setting": "[17]", "value": 20}, {"measurement": "Activity", "setting": "[18]", "value": 1.43}, {"measurement": "Activity", "setting": "[19]", "value": 1.56}, {"measurement": "Activity", "setting": "[20]", "value": 1.53}, {"measurement": "Activity", "setting": "[21]", "value": 1.37}, {"measurement": "Activity", "setting": "[22]", "value": 19.75}, {"measurement": "Activity", "setting": "[23]", "value": 1.03}, {"measurement": "Activity", "setting": "[24]", "value": 1.65}, {"measurement": "Activity", "setting": "[25]", "value": "Non-toxic"}, {"measurement": "Activity", "setting": "[26]", "value": 21}, {"measurement": "Activity", "setting": "[27]", "value": 1.41}, {"measurement": "Activity", "setting": "[28]", "value": 24.78}, {"measurement": "Activity", "setting": "[29]", "value": 1.63}, {"measurement": "Activity", "setting": "[30]", "value": 19.25}]}
